Data from ChEMBL document CHEMBL1128040, “Acyl CoA:cholesterol acyltransferase (ACAT) inhibitors: heterocyclic bioisosteres for the urea group in DuP 128” (Bioorg Med Chem Lett, 1995).

Columns and labels:
[1] = biological target: T1, Sterol O-acyltransferase 1 (Mus musculus, UniProt Q61263); assay: Inhibition of Acyl coenzyme A:cholesterol acyltransferase in J774 Macrophage cell culture; type: cell-based
T1 sequence (Q61263 whole entry): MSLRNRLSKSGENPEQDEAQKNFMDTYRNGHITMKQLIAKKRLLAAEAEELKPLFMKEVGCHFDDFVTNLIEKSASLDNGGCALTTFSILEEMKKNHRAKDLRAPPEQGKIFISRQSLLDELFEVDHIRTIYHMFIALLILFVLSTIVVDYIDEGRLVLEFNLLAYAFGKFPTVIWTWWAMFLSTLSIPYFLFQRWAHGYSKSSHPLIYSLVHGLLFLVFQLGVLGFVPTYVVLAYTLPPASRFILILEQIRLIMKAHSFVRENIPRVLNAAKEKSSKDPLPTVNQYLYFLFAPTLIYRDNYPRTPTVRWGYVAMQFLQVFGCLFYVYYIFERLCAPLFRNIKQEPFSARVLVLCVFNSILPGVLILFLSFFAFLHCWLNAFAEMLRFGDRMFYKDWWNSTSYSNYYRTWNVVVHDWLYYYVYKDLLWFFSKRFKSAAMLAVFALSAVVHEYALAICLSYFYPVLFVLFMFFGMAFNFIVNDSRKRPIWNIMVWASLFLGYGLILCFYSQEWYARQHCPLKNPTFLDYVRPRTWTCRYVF

[2] = biological target: T2, Sterol O-acyltransferase 1 (Rattus norvegicus, UniProt O70536); assay: In vitro inhibition of Acyl coenzyme A:cholesterol acyltransferase in rat hepatic microsomes was measured by using AIV assay; design: species or system Liver
T2 sequence (O70536 whole entry): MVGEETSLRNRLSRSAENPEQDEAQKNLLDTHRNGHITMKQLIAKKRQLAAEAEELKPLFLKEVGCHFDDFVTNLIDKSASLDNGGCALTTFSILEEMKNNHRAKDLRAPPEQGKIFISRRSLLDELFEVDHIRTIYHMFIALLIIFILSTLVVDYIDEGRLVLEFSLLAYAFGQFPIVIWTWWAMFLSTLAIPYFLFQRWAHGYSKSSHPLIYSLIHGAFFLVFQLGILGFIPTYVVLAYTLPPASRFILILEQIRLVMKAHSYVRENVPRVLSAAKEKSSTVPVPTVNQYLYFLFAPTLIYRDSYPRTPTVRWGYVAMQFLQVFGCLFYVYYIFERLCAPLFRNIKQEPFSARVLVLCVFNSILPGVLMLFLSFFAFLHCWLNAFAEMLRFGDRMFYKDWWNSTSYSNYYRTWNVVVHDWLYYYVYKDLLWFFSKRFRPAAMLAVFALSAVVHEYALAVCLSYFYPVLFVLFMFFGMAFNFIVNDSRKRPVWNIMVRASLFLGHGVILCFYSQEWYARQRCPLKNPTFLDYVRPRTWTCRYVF

[3] = test system: Cricetinae gen. sp.; assay: In vivo cholesterol lowering at a single dose of 25 mg/kg in the hamster was determined; type: functional, Cricetulus griseus
[4] = test system: Cricetinae gen. sp.; assay: Tested for effective dose required to lower the serum cholesterol levels in hamsters; type: functional, Cricetulus griseus

Row | Structure (SMILES) | IC50 [1] | IC50 [2] | Activity [3] | ED50 [4]
1 | COCCOCCN(CCCCCSc1nc(-c2ccc(OC)cc2)c(-c2ccc(OC)cc2)[nH]1)c1nc2ccccc2o1 | 80 nM | 40 nM |  | 
2 | CC(CCCSc1nc(-c2ccccc2)c(-c2ccccc2)[nH]1)(CNc1nc2ccccc2o1)c1ccccc1 (configuration not stated) | 5000 nM |  |  | 
3 | CCCCN(CCCCCSc1nc(-c2ccc(OC)cc2)c(-c2ccc(OC)cc2)[nH]1)c1nc2cc(Cl)c([N+](=O)[O-])cc2o1 | 1000 nM |  |  | 
4 | COc1ccc(-c2nc(SCC(C)(CSc3nc4ccccc4o3)c3ccccc3)[nH]c2-c2ccc(OC)cc2)cc1 (configuration not stated) | 3240 nM |  |  | 
5 | COc1ccc(-c2nc(SCCCCCSc3nc4ncncc4[nH]3)[nH]c2-c2ccc(OC)cc2)cc1 | 880 nM |  |  | 
6 | CCCCCCCN(CCCCSc1nc(-c2ccc(OC)cc2)c(-c2ccc(OC)cc2)[nH]1)c1nc2ccccc2o1 | 500 nM |  |  | 
7 | CCCCCCCN(CCCCCSc1nc(-c2ccc(OC)cc2)c(-c2ccc(OC)cc2)[nH]1)c1nc2ccccc2o1 | 80 nM | 40 nM |  | 
8 | COc1ccc(-c2nc(SCCCCCn3c(C(C)C)nc4ccccc43)[nH]c2-c2ccc(OC)cc2)cc1 | 320 nM | 230 nM |  | 
9 | COc1ccc(-c2nc(SCCCCCSc3nc(-c4ccc(OC)cc4)c(-c4ccc(OC)cc4)[nH]3)[nH]c2-c2ccc(OC)cc2)cc1 | 200 nM | 220 nM |  | 
10 | CN(C)c1ccc(-c2nc(SCCCCCSc3nc(-c4ccc(N(C)C)cc4)c(-c4ccc(N(C)C)cc4)[nH]3)[nH]c2-c2ccc(N(C)C)cc2)cc1 | 60 nM | 90 nM |  | 
11 | c1ccc(-c2nc(SCCCCCSc3nc(-c4ccccc4)c(-c4ccccc4)[nH]3)[nH]c2-c2ccccc2)cc1 | 6920 nM | 30 nM |  | 
12 | COc1ccc(-c2nc(SCCCCCn3c4ccccc4c4ccccc43)[nH]c2-c2ccc(OC)cc2)cc1 | 55700 nM | 50000 nM |  | 
13 | COc1ccc(-c2nc(SCCCCCSc3ncnc4nc[nH]c34)[nH]c2-c2ccc(OC)cc2)cc1 | 3650 nM |  |  | 
14 | COc1ccc(-c2nc(SCCCCCn3c(Nc4ccccc4)nc4ccccc43)[nH]c2-c2ccc(OC)cc2)cc1 | 640 nM | 750 nM |  | 
15 | CN(C)c1ccc(-c2nc(SCCCCCNc3nc4ccccc4o3)[nH]c2-c2ccc(N(C)C)cc2)cc1 | 90 nM |  |  | 
16 | CCN(CCCCCSc1nc(-c2ccccc2)c(-c2ccc(SC)cc2)[nH]1)c1nc2ccccc2o1 | 500 nM | 700 nM |  | 

Row | Structure (SMILES) | IC50 [1] | IC50 [2] | Activity [3] | ED50 [4]
17 | Cc1cc(C)n(CCCCCSc2nc(-c3ccc(N(C)C)cc3)c(-c3ccc(N(C)C)cc3)[nH]2)n1 | 250 nM |  |  | 
18 | CC(C)c1nc2ccccc2n1CCCCCSc1nc(-c2ccc(N(C)C)cc2)c(-c2ccc(N(C)C)cc2)[nH]1 | 80 nM | 400 nM |  | 
19 | COc1ccc(-c2nc(SCCCCCSc3nc4c([nH]3)c(=O)n(C)c(=O)n4C)[nH]c2-c2ccc(OC)cc2)cc1 | 8330 nM |  |  | 
20 | c1ccc(-c2nc(SCc3cccc(C4(CNc5nc6ccccc6o5)CCCC4)c3)[nH]c2-c2ccccc2)cc1 | 5900 nM |  |  | 
21 | c1ccc(-c2nc(SCCCCCSc3ncnc4nc[nH]c34)[nH]c2-c2ccccc2)cc1 | 7510 nM |  |  | 
22 | COc1ccc(-c2nc(SCCCCCn3c(SC)nc4ccccc43)[nH]c2-c2ccc(OC)cc2)cc1 | 950 nM | 1400 nM |  | 
23 | CCN(CCCCCSc1nc(-c2ccc(N(C)C)cc2)c(-c2ccc(N(C)C)cc2)[nH]1)c1nc2ccccc2o1 | 50 nM |  |  | 
24 | CC(C)c1nc2ccccc2n1CCCCCSc1nc(-c2ccccc2)c(-c2ccccc2)[nH]1 | 710 nM | 690 nM |  | 
25 | CCCCN(CCCCCSc1nc(-c2ccc(OC)cc2)c(-c2ccc(OC)cc2)[nH]1)c1nc2cc(C(C)(C)C)ccc2o1 | 70 nM | 80 nM |  | 
26 | CCCCCCCN(CCCCCSc1nc(-c2ccccc2)c(-c2ccccc2)[nH]1)c1nc2ccccc2s1 | 660 nM |  |  | 
27 | COc1ccc(-c2nc(SCCCCCSc3nc4ccccc4[nH]3)[nH]c2-c2ccc(OC)cc2)cc1 | 830 nM | 630 nM |  | 
28 | CCCCCCCN(CCCCCSc1nc(-c2ccccc2)c(-c2ccccc2)[nH]1)c1nc2ccccc2o1 | 20 nM | 300 nM | 30% | 
29 | CCCCCCCN(CCCCCSc1nc(-c2ccc(OC)cc2)c(-c2ccc(OC)cc2)[nH]1)c1nc2ccccc2[nH]1 | 490 nM | 90 nM |  | 
30 | CCN(CCCCCSc1nc(-c2ccc(OC)cc2)c(-c2ccc(OC)cc2)[nH]1)c1nc2ccccc2o1 | 90 nM | 140 nM |  | 
31 | CCCCN(CCCCCSc1nc(-c2ccc(OC)cc2)c(-c2ccc(OC)cc2)[nH]1)c1nc2ccccc2o1 | 70 nM | 80 nM |  | 
32 | CCCCCCCN(CCCCCSc1nc(-c2ccccc2)c(-c2ccccc2)[nH]1)C(=O)Nc1ccc(F)cc1F [LECIMIBIDE] | 1000 nM |  |  | 3 mg/kg
